Here are results for one molecule from US6635278B1, “Pharmaceutical formulations” (Gilead Sciences, Inc., priority 1998, dated 2003).

Molecules are shown by their SMILES. Where only a bound is given, the exact number is not on record here.

Data set [1] can be described thus: AD solubility in crystallization solvents. It counts as physicochemical.
Data set [2] can be described thus: Stability of aqueous AD solutions versus pH. It counts as physicochemical.

For the molecule `CC(C)(C)C(=O)OCOP(=O)(COCCn1cnc2c(N)ncnc21)OCOC(=O)C(C)(C)C` [AD, 9-[2-[[bis[(pivaloyloxy)methyl]phosphono]methoxy]ethyl]adenine], in data set [1] (methanol or CH2Cl2), the “AD content the solvent can contain” value is “more than 50%”. The “upper limit of solubility of AD” value in data set [1] (most crystallization solvents at room temperature) was 10-41%. Further, the solubility (in general, the dissolved amount per volume that the medium holds) in data set [1] (organic solvent or mixture, in di-n-butyl ether) is less than 300 µg/mL. Moreover, in data set [2], the “pH of maximum stability” value is 3-5.
